The values that follow come from US10844013B2, “Phenyl amino piperidine mTORC inhibitors and uses thereof” (Navitor Pharmaceuticals, Inc., priority 2016, dated 2020).

Test [1] relates to pS6K1 (p-p70 S6 Kinase (Thr389)) in MCF-7 cells. Description: AlphaLISA Ultra pS6K1 assay. In kind it is cell-based. Conditions: 2 hours compound incubation. The method in brief: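 MCF-7 cells seeded 20–24 h, medium refreshed 2 h, then treated 2 h with compound (0.5% DMSO final). Lysates probed for Thr389-phosphorylated p70 S6K by AlphaLISA Ultra, 2 h acceptor then 2 h donor bead incubation, read on a multimode reader.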

Test [2] has as its system pAKT (p-Akt 1/2/3 (Ser473)) in MCF-7 cells. The test can be described thus: AlphaLISA Ultra pAKT assay. In kind it is cell-based. The method in brief:
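MCF-7 cells seeded 20-24 h, medium refreshed for 2 h, then treated with compounds for 2 h at 0.5% final DMSO. Lysates frozen at −80 °C, then pAKT detected by AlphaLISA with acceptor and donor beads, 2 h each.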

The mark [3] stands for this setting: Homo sapiens, MCF7, 2 hours compound incubation.

Where a name gives a salt, the structure may show the parent alone. Read-outs that look alike come from different tables or passages of the source.

In the case of `Cc1cc(C)c(C(=O)N2CCN(c3ncccc3S(N)(=O)=O)[C@H](C)C2)cc1NC1CCN(c2ccccc2C#N)CC1` [I-122, (R)-2-(4-(5-(1-(2-Cyanophenyl)piperidin-4-ylamino)-2,4-dimethylbenzoyl)-2-methylpiperazin-1-yl)pyridine-3-sulfonamide], the half-inhibitory concentration (IC50) in test [1] (Homo sapiens, MCF7, 2 h) was 0.01 to 1 µM; in test [2] (setting [3]) it was greater than 10 µM.

Turning to `Cc1cc(C)c(C(=O)N2CC(=O)N(c3ccc(F)c(F)c3)[C@H](CO)C2)c(C)c1NC1CCN(c2ccccc2C#N)CC1` [I-136, 2-[4-({3-[(3S)-4-(3,4-difluoro-phenyl)-3-(hydroxy-methyl)-5-oxopiperazine-1-carbonyl]-2,4,6-trimethyl-phenyl}amino)piperidin-1-yl]benzonitrile], the IC50 is 0.01 to 1 µM in test [1] (Homo sapiens, MCF7, 2 h) and greater than 10 µM in test [2] (setting [3]).

Take `CCN(c1cc(C(=O)N2CCN(c3ccccc3S(N)(=O)=O)CC2)c(C)cc1C)C1CCN(c2ccccc2C#N)CC1C` (stereo not drawn) [I-10, 2-(4-(5-((1-(2-Cyanophenyl)-3-methylpiperidin-4-yl)(ethyl)amino)-2,4-dimethylbenzoyl)piperazin-1-yl)benzenesulfonamide]: the IC50 in test [1] (Homo sapiens, MCF7, 2 h) was 1 to 3 µM; in test [2] (setting [3]), greater than 10 µM.

Regarding `Cc1cc(C)c(C(=O)N2CCN(c3ccccc3)[C@H](CN)C2)c(C)c1NC1CCN(c2ccccc2C#N)CC1` [I-137, 2-[4-({3-[(3R)-3-(Aminomethyl)-4-phenylpiperazine-1-carbonyl]-2,4,6-trimethylphenyl}amino)piperidin-1-yl]benzonitrile], the IC50 was 0.01 to 1 µM in test [1] (Homo sapiens, MCF7, 2 h) and greater than 10 µM in test [2] (setting [3]).

Regarding `CNC(=O)C1CN(C(=O)c2cc(N(C)C3CCN(c4ccccc4C#N)CC3)c(C)cc2C)CCN1c1ccccc1` (stereo not drawn) [I-58], the IC50 in test [1] (Homo sapiens, MCF7, 2 h) was 0.01 to 1 µM; in test [2] (setting [3]) it was greater than 10 µM.

In the case of `Cc1cc(C)c(C(=O)N2CCN(c3ccccc3)C(C(N)=O)C2)c(C)c1NC1CCN(c2ccccc2C#N)CC1` (stereo not drawn) [I-139, 4-(3-{[1-(2-cyanophenyl)piperidin-4-yl]amino}-2,4,6-trimethyl-benzoyl)-1-phenyl-piperazine-2-carboxamide], the IC50 was 0.01 to 1 µM in test [1] (Homo sapiens, MCF7, 2 h) and greater than 10 µM in test [2] (setting [3]).

Turning to `Cc1cc(C)c(C(=O)N2CCN(c3ccccc3)C(C)(C)C2)cc1NC1CCN(c2ccccc2C#N)CC1` [I-119, 2-(4-(5-(3,3-Dimethyl-4-phenylpiperazine-1-carbonyl)-2,4-dimethylphenylamino)piperidin-1-yl)benzonitrile], the IC50 was greater than 10 µM in test [1] (Homo sapiens, MCF7, 2 h) and greater than 10 µM in test [2] (setting [3]).

As for `Cc1cc(C)c(C(=O)N2CCN(c3cccc(F)c3[S@](C)(=N)=O)C[C@@H]2C)c(C)c1NC1CCN(c2ccccc2C#N)CC1` [I-190, 2-(4-(3-((S)-4-(3-fluoro-2-((R)-S-methylsulfonimidoyl)phenyl)-2-methylpiperazine-1-carbonyl)-2,4,6-trimethylphenylamino)piperidin-1-yl)benzonitrile], the IC50 in test [1] (Homo sapiens, MCF7, 2 h) is 0.01 to 1 µM; in test [2] (setting [3]) it was greater than 10 µM.

In the case of `Cc1cc(C)c(C(=O)N2CCN[C@H](CO)C2)cc1NC1CCN(c2ccccc2C#N)CC1` [I-8, (S)-2-(4-(5-(3-(hydroxymethyl)piperazine-1-carbonyl)-2,4-dimethylphenylamino)piperidin-1-yl)benzonitrile], the IC50 was greater than 10 µM in test [1] (Homo sapiens, MCF7, 2 h) and greater than 10 µM in test [2] (setting [3]).

As for `Cc1cc(C#N)c(NC2CCN(c3ccccc3C#N)CC2)cc1C(=O)N1CCN(c2ccccc2S(N)(=O)=O)CC1` [I-86, 2-(4-(4-Cyano-5-(1-(2-cyanophenyl)piperidin-4-ylamino)-2-methylbenzoyl)piperazin-1-yl)benzenesulfonamide], the IC50 in test [1] (Homo sapiens, MCF7, 2 h) is greater than 10 µM; in test [2] (setting [3]), greater than 10 µM.

Take `Cc1cc(C)c(N(C)C2CCN(c3ccccc3C#N)CC2)cc1C(=O)N1CCN(c2ccccc2S(N)(=O)=O)CC1` [I-59]: the IC50 in test [1] (Homo sapiens, MCF7, 2 h) was 3 to 5 µM; in test [2] (setting [3]) it was greater than 10 µM.

With `Cc1cc(C)c(C(=O)N2CCN(c3ncccc3S(N)(=O)=O)CC2)c(C)c1N[C@H]1CCN(c2ccccc2C#N)C[C@H]1C` [I-178, 2-(4-(3-(((3R,4S)-1-(2-cyanophenyl)-3-methylpiperidin-4-yl)amino)-2,4,6-trimethylbenzoyl)piperazin-1-yl)pyridine-3-sulfonamide], the IC50 in test [1] (Homo sapiens, MCF7, 2 h) is 0.01 to 1 µM; in test [2] (setting [3]), greater than 10 µM.

`Cc1cc(C)c(C(=O)N2CCN(c3ccccc3C)[C@@H](CO)C2)cc1NC1CCN(c2ccccc2C#N)CC1` [I-112, (R)-2-(4-(5-(3-(Hydroxymethyl)-4-o-tolylpiperazine-1-carbonyl)-2,4-dimethylphenylamino)piperidin-1-yl)benzonitrile]: the IC50 in test [1] (Homo sapiens, MCF7, 2 h) is 1 to 3 µM; in test [2] (setting [3]) it was greater than 10 µM.

As to `N#Cc1ccccc1N1CCC(Nc2c(F)ccc(C(=O)N3CCN(c4ccccc4S(N)(=O)=O)CC3)c2F)CC1` [I-109, 2-(4-(3-(1-(2-cyanophenyl)piperidin-4-ylamino)-2,4-difluorobenzoyl)piperazin-1-yl)benzenesulfonamide], the IC50 in test [1] (Homo sapiens, MCF7, 2 h) was 3 to 5 µM; in test [2] (setting [3]), greater than 10 µM.

Take `Cc1ccc(NC2CCN(c3ccccc3C#N)CC2)cc1C(=O)N1CCN(c2ccccc2)C(CO)C1` (single isomer, unassigned) [I-82, 2-[4-({3-[(3R or S)-3-(hydroxymethyl)-4-phenylpiperazine-1-carbonyl]-4-methylphenyl}amino)piperidin-1-yl]benzonitrile]: the figures for the IC50 in test [1] (read-out: pS6K1 in MCF7: IC50) and in test [2] (setting [3]) were 3 to 5 µM and greater than 10 µM, respectively.

Regarding `Cc1cc(C)c(C(=O)N2CCN(c3ccccc3)C(CN)C2)c(C)c1NC1CCN(c2ccccc2C#N)CC1` (stereo not drawn) [I-135, 2-[4-({3-[3-(Aminomethyl)-4-phenylpiperazine-1-carbonyl]-2,4,6-trimethylphenyl}amino)piperidin-1-yl]benzonitrile; bis(formic acid) salt], the IC50 was 0.01 to 1 µM in test [1] (Homo sapiens, MCF7, 2 h) and greater than 10 µM in test [2] (setting [3]).

As to `Cc1cc(C)c(C(=O)N2CCN(c3ccccc3S(C)(=N)=O)CC2)cc1NC1CCN(c2ccccc2C#N)CC1` (stereo not drawn) [I-62, 2-(4-{[5-(4-{2-[imino(methyl)oxo-λ^6-sulfanyl]phenyl}piperazine-1-carbonyl)-2,4-dimethylphenyl]amino}piperidin-1-yl)benzonitrile], the IC50 was 0.01 to 1 µM in test [1] (Homo sapiens, MCF7, 2 h) and greater than 10 µM in test [2] (setting [3]).

Take `Cc1cc(C)c(C(=O)N2CCN(c3ccc(F)cn3)[C@H](CO)C2)c(C)c1NC1CCN(c2cccnn2)CC1` [I-161, [(2S)-1-(5-fluoropyridin-2-yl)-4-(2,4,6-trimethyl-3-{[1-(pyridazin-3-yl)piperidin-4-yl]amino}benzoyl)piperazin-2-yl]MeOH]: the IC50 in test [1] (Homo sapiens, MCF7, 2 h) was 0.01 to 1 µM; in test [2] (setting [3]) it was greater than 10 µM.

On to `Cc1cc(C)c(C(=O)N2CCN(c3ncccc3C(N)=O)CC2)cc1NC1CCN(c2ccccc2C#N)CC1` [I-28], for which the half-maximal inhibitory concentration (IC50) in test [1] (Homo sapiens, MCF7, 2 h) is 1 to 3 µM; in test [2] (setting [3]), greater than 10 µM.

For the molecule `Cc1cc(C)c(C(=O)N2CCN(c3ccc(F)cn3)[C@@H](CO)C2)cc1NC1CCN(c2ccccc2C#N)CC1` [I-116, (R)-2-(4-(5-(4-(5-Fluoropyridin-2-yl)-3-(hydroxymethyl)piperazine-1-carbonyl)-2,4-dimethylphenylamino)piperidin-1-yl)benzonitrile], the IC50 in test [1] (Homo sapiens, MCF7, 2 h) was 1 to 3 µM; in test [2] (setting [3]), greater than 10 µM.

With `Cc1cc(F)c(C(=O)N2CCN(c3ccccc3S(N)(=O)=O)CC2)cc1NC1CCN(c2ccccc2C#N)CC1` [I-113, 2-(4-(5-(1-(2-Cyanophenyl)piperidin-4-ylamino)-2-fluoro-4-methylbenzoyl)piperazin-1-yl)benzenesulfonamide], the IC50 in test [1] (Homo sapiens, MCF7, 2 h) was 3 to 5 µM; in test [2] (setting [3]) it was greater than 10 µM.

Regarding `Cc1cc(C)c(C(=O)N2CCN(c3ccccc3C#N)CC2)cc1NC1CCCN(c2ccc(C#N)cc2)CC1` (stereo not drawn) [I-80, 2-[4-(5-{[1-(4-cyanophenyl)azepan-4-yl]amino}-2,4-dimethylbenzoyl)piperazin-1-yl]benzonitrile], the IC50 in test [1] (Homo sapiens, MCF7, 2 h) is 1 to 3 µM; in test [2] (setting [3]), greater than 10 µM.

On to `Cc1cc(C)c(C(=O)N2CCN(c3ncccc3[S@](C)(=N)=O)CC2)cc1NC1CCN(c2ccccc2C#N)CC1` [I-94, (R)-2-(4-(2,4-Dimethyl-5-(4-(3-(S-methylsulfonimidoyl)pyridin-2-yl)piperazine-1-carbonyl)phenylamino)piperidin-1-yl)benzonitrile], for which the IC50 in test [1] (Homo sapiens, MCF7, 2 h) is 1 to 3 µM; in test [2] (setting [3]), greater than 10 µM.

As to `Cc1cc(C)c(C(=O)N2CCN(c3ccccc3C#N)CC2)cc1NC1CCN(c2ccccc2C#N)CC1` [I-71, 2-[4-({5-[4-(2-Cyanophenyl)piperazine-1-carbonyl]-2,4-dimethylphenyl}amino)piperidin-1-yl]benzonitrile], the IC50 in test [1] (Homo sapiens, MCF7, 2 h) is 0.01 to 1 µM; in test [2] (setting [3]) it was greater than 10 µM.

Consider `Cc1ccc(C(=O)N2CCN(c3ccccc3)C(CO)C2)cc1NC1CCN(c2ccccc2C#N)CC1` (single isomer, unassigned) [I-85, 2-[4-({5-[(3S or R)-3-(hydroxymethyl)-4-phenylpiperazine-1-carbonyl]-2-methylphenyl}amino)piperidin-1-yl]benzonitrile], for which the IC50 in test [1] (read-out: pS6K1 in MCF7: IC50) is 0.01 to 1 µM; in test [2] (2 hours compound incubation, read-out: pAKT in MCF7: IC50), greater than 10 µM.

In the case of `Cc1cc(C)c(C(=O)N2CCN(c3cccnn3)CC2)cc1NC1CCN(c2ccccc2C#N)CC1` [I-70, 2-[4-({2,4-Dimethyl-5-[4-(pyridazin-3-yl)piperazine-1-carbonyl]phenyl}amino)piperidin-1-yl]benzonitrile], the IC50 is 3 to 5 µM in test [1] (Homo sapiens, MCF7, 2 h) and greater than 10 µM in test [2] (setting [3]).

With `Cc1cc(C)c(C(=O)N2CCN(c3ccc(F)cc3)C(C(N)=O)C2)c(C)c1NC1CCN(c2ccc(F)cc2C#N)CC1` (stereo not drawn) [I-144, 4-(3-{[1-(2-cyano-4-fluorophenyl)piperidin-4-yl]amino}-2,4,6-trimethyl-benzoyl)-1-(4-fluorophenyl) piperazine-2-carboxamide], the IC50 in test [1] (Homo sapiens, MCF7, 2 h) was 0.01 to 1 µM; in test [2] (setting [3]), greater than 10 µM.
